Reference: patent US6369104B1, “Biocidal compositions and use thereof containing a synergistic mixture of glutaraldehyde and 2,2-dibromo-3 nitrilo propionamide” (Hercules Incorporated, priority 2000, dated 2002)

System: Klebsiella pneumoniae
Assay: Checkerboard growth inhibition (turbidity at 590 nm) with Kull synergism index
Type: cell-based
Description: Glutaraldehyde and DBNPA were added in varying ratios over a wide range of concentrations to a liquid nutrient medium which was subsequently inoculated with a standard volume of a suspension of the facultative bacterium Klebsiella pneumoniae. Growth was measured by turbidity at 590 nm in a microplate spectrophotometer. The effect of the biocide chemicals, alone and in combination, is to reduce the growth (turbidity) of the bacterial cells as compared to controls not treated with the chemicals. Additions of the biocides, alone and in varying combinations and concentrations, were made according to the accepted “checkerboard” technique described by M. T. Kelly and J. Matsen, Antimicrobial Agents and Chemotherapy. 9:440 (1976). Growth was measured after overnight incubation at 30° C. Each unique sample concentration was tested in triplicate. The percent reduction of each treated sample was calculated from the relationship: [formula]
Plotting the % reduction of turbidity against the concentration of each biocide acting alone results in a dose-response curve, from which the biocide dose necessary to achieve a given % reduction can be interpolated.
Synergism was determined by the method of calculation described by F. C. Kull, P. C. Eisman, H. D. Sylwestrowicz and R. L. Mayer, Applied Microbiology, 9:538 (1961) using the relationship:
(QA/Qa)+(QB/Qb)=Synergism Index (SI)
Qa=quantity of compound A, acting alone, producing an end point
Qb=quantity of compound B, acting alone, producing an end point
QA=quantity of compound A, in mixture, producing an end point
QB=quantity of compound B, in mixture, producing an end point
The end point used in the calculations is the % reduction caused by each mixture of A and B. QA and QB are the individual concentrations in the A/B mixture causing a given % reduction. QA and QB are determined by interpolation from the respective dose-response curves of A and B as those concentrations of A and B acting alone which produce the same % reduction as each specific mixture produced.
Dose-response curves for each active acting alone were determined by linear regression analysis of dose-response data. Data were fitted to a curve represented by the equation shown with each data set. After linearizing the data, the contributions of each biocide component in the biocide mixtures to the inhibition of turbidity were determined by a linear regression method with the dose-response curve of the respective biocide. If, for example, quantities of QA and QB are sufficient to give a 50% reduction in turbidity, Qa and Qb are those quantities of A and B acting alone respectively, found to give 50% reduction in turbidity. A synergism index (SI) is calculated for each combination of A and B.
Where the SI is less than 1, synergism exists. Where the SI=1, additivity exists. Where SI is greater than 1, antagonism exists.
The data in the following tables come from treating Klebsiella pneumoniae, a common nuisance bacterial type found in industrial cooling waters and in pulping and paper making systems, with varying ratios and concentrations of glutaraldehyde and DBNPA. Shown for each combination is the % reduction of turbidity (%I), the calculated SI, and the weight ratio of glutaraldehyde and DBNPA.

O=CCCCC=O [Glutaraldehyde, glutaraldehyde]
% I (% reduction of turbidity) (Table I, Glutaraldehyde 9.4 ppm alone): 0% | % I (% reduction of turbidity) (Table I, Glutaraldehyde 18.8 ppm alone): 0% | % I (% reduction of turbidity) (Table I, Glutaraldehyde 37.5 ppm alone): 6% | % I (% reduction of turbidity) (Table I, Glutaraldehyde 75 ppm alone): 22% | % I (% reduction of turbidity) (Table I, Glutaraldehyde 150 ppm alone): 53% | % I (% reduction of turbidity) (Table I, Glutaraldehyde 300 ppm alone): 100% | % I (% reduction of turbidity) (Table II, Glutaraldehyde 9.4 ppm alone): 2% | % I (% reduction of turbidity) (Table II, Glutaraldehyde 18.8 ppm alone): 6% | % I (% reduction of turbidity) (Table II, Glutaraldehyde 37.5 ppm alone): 13% | % I (% reduction of turbidity) (Table II, Glutaraldehyde 75 ppm alone): 28% | % I (% reduction of turbidity) (Table II, Glutaraldehyde 150 ppm alone): 58% | % I (% reduction of turbidity) (Table II, Glutaraldehyde 300 ppm alone): 100%

N#CC(Br)(Br)C(N)=O [DBNPA, 2,2-dibromo-3-nitrilopropionamide]
% I (% reduction of turbidity) (Table I, DBNPA 3.2 ppm alone): 60% | % I (% reduction of turbidity) (Table I, DBNPA 6.3 ppm alone): 62% | % I (% reduction of turbidity) (Table I, DBNPA 12.5 ppm alone): 65% | % I (% reduction of turbidity) (Table I, DBNPA 25 ppm alone): 72% | % I (% reduction of turbidity) (Table I, DBNPA 50 ppm alone): 86% | % I (% reduction of turbidity) (Table I, DBNPA 100 ppm alone): 100% | % I (% reduction of turbidity) (Table II, DBNPA 3.2 ppm alone): 84% | % I (% reduction of turbidity) (Table II, DBNPA 6.3 ppm alone): 85% | % I (% reduction of turbidity) (Table II, DBNPA 12.5 ppm alone): 87% | % I (% reduction of turbidity) (Table II, DBNPA 25 ppm alone): 89% | % I (% reduction of turbidity) (Table II, DBNPA 50 ppm alone): 95% | % I (% reduction of turbidity) (Table II, DBNPA 100 ppm alone): 100%
